Data set [1] concerns IR45. The data set can be described thus: imine reduction kinetics. To be noted: read-out: F190L-W191F / K m; NADPH-dependent.
Data set [2] deals with IR45. The data set can be described thus: imine reduction kinetics. To be noted: read-out: F190M-W191F / K m; NADPH-dependent.
The subject of data set [3] is IR45. As to the kind of experiment: imine reduction kinetics. Conditions: read-out: IR45 / K m; NADPH-dependent.
Data set [4] deals with COc1ccc(C[C@@H]2NCCc3cc(OC)c(OC)cc32)cc1OC. As to the kind of experiment: purified protein. Conditions: co-substrate S-adenosylmethionine.
For data set [5], the system named is COc1cc2c(cc1OC)[C@H](c1ccc3c(c1)OCO3)NCC2. As to the kind of experiment: purified protein. Conditions: co-substrate S-adenosylmethionine.

The text below walks through data of PMC7067268, “Biosynthesis of plant tetrahydroisoquinoline alkaloids through an imine reductase route” (Chemical Science, 2019).

Like-named read-outs stand apart in the source and are kept apart here.

As to `COc1cc2c(cc1OC)C(c1ccc3c(c1)OCO3)=NCC2` [1a], the Km amounted to 123 µM in the data set on IR45 [1], 108 µM in the data set on IR45 [2] and 154 µM in the data set with IR45 [3].
Take `COc1ccc(C2=NCCc3cc(OC)c(OC)cc32)cc1OC` [2a]: the Km in the data set on IR45 [1] was determined as 307 µM.
Same read-out and setting: with `COc1cc2c(cc1OC)C(c1cc(OC)c(OC)c(OC)c1)=NCC2` [3a] the figure was 372 µM.
`COc1cc2c(cc1OC)C(Cc1ccccc1)=NCC2` [4a]: the Km is 252 µM with IR45 [1], 251 µM with IR45 [2] and 148 µM with IR45 [3].
On to `COc1ccc(CC2=NCCc3cc(OC)c(OC)cc32)cc1OC` [5a], for which the results for the Km in the data set with IR45 [1], in the data set on IR45 [2] and in the data set with IR45 [3] were 353 µM, 178 µM and 518 µM, respectively.
A word on the kcat: it is the number of substrate molecules converted per active site and unit of time at saturation. “Coclaurine N-methyltransferase (CNMT) (Coptis japonica)”: the values for the Km in data set [4] and in data set [5] were 807 ± 208 µM and 806 ± 198 µM, respectively. Besides, the kcat in data set [4] amounted to 0.296 ± 0.042 s⁻¹; in data set [5], 0.098 ± 0.031 s⁻¹.
